Legend:
fetuses of female rats [1] = experiment: Teratogenic effects in the rat; assay type: in vivo
beagle dogs = experiment: Beagle Pain Syndrome (BPS); assay type: in vivo, dog
Description: Beagle Pain Syndrome (BPS)
The compounds were administrated intravenously to beagle dogs. The dosage was given for five consecutive days. The dogs were evaluated for clinical and laboratory signs of the pain syndrome, e.g. fever, increased erythrocyte sedimentation rate (ESR), alkaline phosphate (AP), induction of acute phase proteins and vasculitis.

[2] = e.g. a flu-like syndrome; cited from earlier work
fetuses of female rats [3] = conditions: rat, background statement; cited from earlier work
[4] = tested on: acute experimental autoimmune encephalomyelitis (aEAE); experiment: Acute experimental autoimmune encephalomyelitis (aEAE) inhibition; assay type: in vivo; conditions: at ≧5 mg/kg, mice, treatment control

In the case of `CN(C(=O)c1c(O)c2c(Cl)cccc2n(C)c1=O)c1ccc(F)cc1F` [Compound B, N-methyl-N-(2,4-difluoro-phenyl)-1,2-dihydro-4-hydroxy-5-chloro-1-methyl-2-oxo-quinoline-3-carboxamide], the “% malformed fetuses” value (fetuses of female rats [1]; 6 mg/kg p.o.) is reported as 0%.
In the case of `CN(C(=O)c1c(O)c2ccccc2n(C)c1=O)c1ccccc1` [Compound D, N-phenyl-N-methyl-1,2-dihydro-4-hydroxy-1-methyl-2-oxo-quinoline-3-carboxamide], the “% malformed fetuses” value (fetuses of female rats [1]; 10 mg/kg p.o.) is reported as 9%, the “% malformed fetuses” value (fetuses of female rats [1]; 30 mg/kg p.o.) is reported as 30% and the “Beagle Pain Syndrome (in words)” value (beagle dogs) is reported as “induce the Beagle Pain Syndrome”. For the same molecule, the “side effects in man (in words)” value [2] was “dose-limiting side effects”, the “teratogenicity (in words)” value (fetuses of female rats [3]) was “teratogenic in the rat” and the “inhibition of aEAE” value [4] was “more than 50%”.
In the case of `COc1cccc2c1c(O)c(C(=O)N(C)c1ccc(C(F)(F)F)cc1)c(=O)n2C` [Compound A, N-methyl-N-(4-trifluoromethyl-phenyl)-1,2-dihydro-4-hydroxy-5-methoxy-1-methyl-2-oxo-quinoline-3-carboxamide], the “% malformed fetuses” value (fetuses of female rats [1]; 6 mg/kg p.o.) is reported as 4% and the “% malformed fetuses” value (fetuses of female rats [1]; 30 mg/kg p.o.) is reported as 2%.
With `CN(C(=O)c1c(O)c2c(Cl)cccc2n(C)c1=O)c1ccccc1` [Compound C, N-Methyl-N-phenyl-1,2-dihydro-4-hydroxy-5-chloro-1-methyl-2-oxo-quinoline-3-carboxamide] the “% malformed fetuses” value (fetuses of female rats [1]; 6 mg/kg p.o.) was 37%.

Reference: US6593343B2, “Quinoline derivatives” (Active Biotech AB, priority 1998, dated 2003)
